# System: 653999-131-R-J2-PDC complex spheroids, growth inhibition
# Assay: Anticancer human tumor 653999-131-R-J2-PDC patient-derived lung adenocarcinoma cell line growth inhibition [RAS]
# Conditions: for IC50: curve of first compound; for viability, T/C: stronger effect = lower value
# Outline: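 Agents were tested in combination matrices in half-log decrements from a top concentration at or near clinical Cmax (10 microM if undetermined). Targets were multi-cell spheroids of tumour lines plus HUVEC and MSC stromal cells.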
# 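Note: spheroids exposed to the agents for seven days before the readout.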
structure (smiles),measurement,setting,value
CCc1c2c(nc3ccc(O)cc13)-c1cc3c(c(=O)n1C2)COC(=O)[C@]3(O)CC + C=CC(=O)N1CCN(c2nc(OCC3CCCN3C)nc3c(F)c(-c4nc(N)cc(C)c4C(F)(F)F)c(Cl)cc23)C(C)C1,IC50,second compound 0.00316 µM,8.57 nM
same,IC50,second compound 0.01 µM,6.53 nM
same,IC50,second compound 0.0316 µM,6.41 nM
same,IC50,second compound 0.1 µM,5.92 nM
same,IC50,second compound 0.316 µM,5.94 nM
same,IC50,second compound 1 µM,8.46 nM
same,"viability, T/C","second compound 0.00316 µM, first compound 0.000949 µM",80.2%
same,"viability, T/C","second compound 0.00316 µM, first compound 0.003 µM",58.5%
same,"viability, T/C","second compound 0.00316 µM, first compound 0.00949 µM",53.5%
same,"viability, T/C","second compound 0.00316 µM, first compound 0.03 µM",34.3%
same,"viability, T/C","second compound 0.00316 µM, first compound 0.0949 µM",20.8%
same,"viability, T/C","second compound 0.00316 µM, first compound 0.3 µM",10.2%
same,"viability, T/C","second compound 0.01 µM, first compound 0.000949 µM",88.7%
same,"viability, T/C","second compound 0.01 µM, first compound 0.003 µM",61.9%
same,"viability, T/C","second compound 0.01 µM, first compound 0.00949 µM",44.2%
same,"viability, T/C","second compound 0.01 µM, first compound 0.03 µM",29%
same,"viability, T/C","second compound 0.01 µM, first compound 0.0949 µM",21.5%
same,"viability, T/C","second compound 0.01 µM, first compound 0.3 µM",11.3%
same,"viability, T/C","second compound 0.0316 µM, first compound 0.000949 µM",90.9%
same,"viability, T/C","second compound 0.0316 µM, first compound 0.003 µM",60.8%
same,"viability, T/C","second compound 0.0316 µM, first compound 0.00949 µM",43.8%
same,"viability, T/C","second compound 0.0316 µM, first compound 0.03 µM",30.4%
same,"viability, T/C","second compound 0.0316 µM, first compound 0.0949 µM",20.6%
same,"viability, T/C","second compound 0.0316 µM, first compound 0.3 µM",11.6%
same,"viability, T/C","second compound 0.1 µM, first compound 0.000949 µM",85.8%
same,"viability, T/C","second compound 0.1 µM, first compound 0.003 µM",58.3%
same,"viability, T/C","second compound 0.1 µM, first compound 0.00949 µM",43.1%
same,"viability, T/C","second compound 0.1 µM, first compound 0.03 µM",30.2%
same,"viability, T/C","second compound 0.1 µM, first compound 0.0949 µM",23.7%
same,"viability, T/C","second compound 0.1 µM, first compound 0.3 µM",12.1%
same,"viability, T/C","second compound 0.316 µM, first compound 0.000949 µM",83.9%
same,"viability, T/C","second compound 0.316 µM, first compound 0.003 µM",59.7%
same,"viability, T/C","second compound 0.316 µM, first compound 0.00949 µM",42.5%
same,"viability, T/C","second compound 0.316 µM, first compound 0.03 µM",29.5%
same,"viability, T/C","second compound 0.316 µM, first compound 0.0949 µM",23%
same,"viability, T/C","second compound 0.316 µM, first compound 0.3 µM",11.9%
same,"viability, T/C","second compound 1 µM, first compound 0.000949 µM",84.5%
same,"viability, T/C","second compound 1 µM, first compound 0.003 µM",64.2%
same,"viability, T/C","second compound 1 µM, first compound 0.00949 µM",50.7%
same,"viability, T/C","second compound 1 µM, first compound 0.03 µM",31.2%
same,"viability, T/C","second compound 1 µM, first compound 0.0949 µM",25.3%
same,"viability, T/C","second compound 1 µM, first compound 0.3 µM",14.5%
